# According to PMC5116089, “Sulfheme formation during homocysteine S-oxygenation by catalase in cancers and neurodegenerative diseases” (Nature Communications, 2016):
# Read-outs that look alike come from different tables or passages of the source.
# Experiments:
# [1] = test system: Hek 293T cells; assay: H2O2 consumption in cell lysates as a function of NaSH concentration; type: biochemical; settings: read-out: relative IC50 (rate of H2O2 consumption)
# Description: (§1) CAT activity was measured on an Uvikon 941 spectrophotometer equipped with a temperature controlled water bath (±1 °C) by following the disappearance of H2O2 at 240 nm over 30–120 s at 25 °C. Catalase activity was calculated based on the rate of decomposition of hydrogen peroxide, which is proportional to the reduction of the absorbance at 240 nm. Experiments were carried out in a 3 ml quartz cuvette containing 11.7 mM H2O2 in 50 mM KPi, pH 7.4±1 mM DTPA and the reaction was initiated by adding 0.3–0.6 pmoles of CAT. The effect of biological thiols on the activity of CAT under physiological conditions was determined from a solution of CAT (30–60 nM) preincubated at 25 °C for at least 120 min as a function thiol concentration (0–40 mM for HCys and Cys, 0–100 mM for GSH) in 50 mM KPi, pH 7.4, 1 mM DTPA. Control experiments (biological thiols alone) were also performed in parallel. […] Similarly, the effect of biological thiols on the activity of CAT under pathological conditions was determined from a solution of CAT (30–60 nM) containing a 2.124±0.386 molar excess of iron that was preincubated with various concentrations of thiols (0–1 mM) for at least 120 min at 25 °C in 50 mM KP at pH 7.4. […] The effect of NaSH on the consumption of H2O2 in cell lysates was determined from a solution of cell lysates (0.5–3 mg ml^−1) incubated on ice with various concentrations of NaSH (0–200 μM). […]
# [2] = test system: crypt and surface epithelial cells; assay: as above; type: biochemical, mice; settings: read-out: relative IC50 (rate of H2O2 consumption)
# Description: as §1
smiles,measurement,setting,value
[Na+].[SH-] [NaSH],IC50,[1]; Hek 293T cells transfected with Htt,4 ± 1.5 µM
same,IC50,[1]; Hek 293T cells transfected with pcDNA,6.5 ± 3.6 µM
same,IC50,[2]; cells isolated from DSS-treated mice,21.6 ± 6.2 µM
same,IC50,[2]; cells isolated from untreated mice,25.2 ± 6.7 µM
